{
  "source": "patent US11000529B2",
  "about": "“Human papilloma virus replication inhibitors” (Icosagen Cell Factory OÜ, priority 2015, dated 2021)",
  "key": {"HPV18E1E2 mutant genome": {"tested_on": "HPV18E1E2 mutant genome", "assay": "HPV18E1E2 mutant genome replicated by HPV11 E1 and E2 in U2OS cells", "type": "cell-based, HPV18", "settings": "U2OS co-transfected with HPV18E1E2 mutant and HPV11 wt minicircle, 5 days", "excerpt": "Besides oncoproteins E6 and E7, HPVs differ from replication proteins E1 and E2 as well. To determine if the compounds identified here inhibit the replication of HR but not LR or cutaneous HPVs through E1 or E2, HPV18E1E2 mutant genome (deficient in replication due to mutations in the ORFs of E1 and E2) was replicated by E1 and E2 proteins originating from HPV11. HPV18E1E2 mutant genome alone was used as control. U2OS cells were co-transfected with HPV18E1E2 mutant and HPV11 wt mini circle genome and the cells were grown in the presence of compound 305831 for 5 days, media was changed on the 3rd day. DMSO was added as vehicle control. Genomic DNA was extracted, HPV DNA was digested with AgeI, SdaI and DpnI. HPV replication was detected by Southern Blot analyses. Results on FIG. 7 show, that HPV18E1E2 mutant genome is indeed replication-deficient when transfected alone (lane 7). […] The activity of LR-HPV E1 and E2 proteins or their interactome seem to be different compared to HR-HPV replication proteins."}, "Tdp": {"target": "Tdp (Homo sapiens, UniProt Q9NUW8)", "sequence (Q9NUW8 whole entry)": "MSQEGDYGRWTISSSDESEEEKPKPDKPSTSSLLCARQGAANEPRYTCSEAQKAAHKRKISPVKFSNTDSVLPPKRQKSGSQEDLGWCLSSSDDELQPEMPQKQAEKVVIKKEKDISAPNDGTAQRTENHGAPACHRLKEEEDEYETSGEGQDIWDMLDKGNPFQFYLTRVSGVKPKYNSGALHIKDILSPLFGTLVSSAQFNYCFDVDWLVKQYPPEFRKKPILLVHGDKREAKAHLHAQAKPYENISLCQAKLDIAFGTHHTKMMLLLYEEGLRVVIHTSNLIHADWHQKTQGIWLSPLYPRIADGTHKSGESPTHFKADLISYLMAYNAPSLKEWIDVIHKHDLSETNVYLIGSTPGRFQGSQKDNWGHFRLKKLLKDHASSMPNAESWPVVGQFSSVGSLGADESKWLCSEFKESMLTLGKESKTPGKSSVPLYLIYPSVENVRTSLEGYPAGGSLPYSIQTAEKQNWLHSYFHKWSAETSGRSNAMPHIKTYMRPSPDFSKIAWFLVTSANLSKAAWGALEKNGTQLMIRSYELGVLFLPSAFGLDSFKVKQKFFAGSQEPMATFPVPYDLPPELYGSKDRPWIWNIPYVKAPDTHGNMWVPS", "settings": "known from the literature; cited from earlier work"}, "HPV18 [1]": {"tested_on": "HPV18", "assay": "HPV18 replication in U2OS-EBNA1 cells, compounds alone or with CPT", "type": "cell-based", "settings": "U2OS-EBNA1, with 2 nM CPT, 5 days", "procedure": "FIG. 5 Synergistic effect between Camptothecin (CPT) and the identified five compounds. U2OS-EBNA1 cells were transfected with HPV18 wt and oriP plasmids and grown in the presence of indicated concentrations of the compounds alone or together with 2 nM CPT for 5 days. Genomic DNA was extracted, linearized and digested with DpnI. Both HPV18 and oriP replication signals were detected with Southern Blot and quantified by phosphoimager. […] Error-bars represent standard deviations from at least three independent experiments.\n(§1) Replication assay. The U2OS or U2OS-EBNA1 cells were transfected with 2 ug of HPV18 minicircle genome and lug of oriP plasmid (only in case of U2OS-EBNA1 cells). All the compounds were added to the media immediately after the transfection and media was changed on the third day. Replication signals were detected with Southern Blot method. Briefly, genomic DNA was extracted 3 and 4 days after the transfection with sh_RNAs or with the use of ABT-888 and 5 days after for analyses of the effects of HPV inhibitors w/wo CPT. DNA was digested with BglI and DpnI for analyses of HPV18 replication and with BstXI, ScaI and DpnI for analyses of HPV18 and oriP replication simultaneously. 3 ug of DNA was resolved in agarose gel, transferred to a nylon membrane (Membrane Solutions LLC) and hybridized with specific radioactively labeled probes. Signals were detected and quantified with Typhoon Trio+ phosphoimager (GE Healthcare) and exposed on an X-ray film (AGFA).\nSynergistic effect of Campthotecin (CPT) and HPV18 replication inhibitors. CPT is a Topoisomerase I inhibitor that stabilizes entrapped Top1cc complexes to DNA. Since Tdp1 is responsible for cleaving entrapped Top1cc complexes from DNA, synergistic effect between CPT and Tdp1 inhibitors occurs. In the experiments shown in FIG. 5 we used U2OS cells constitutively expressing Epstein Barr virus (EBV) EBNA1 protein—U2OS-EBNA1. These cells allow to monitor HPV and EBNA1 supported oriP plasmid replication simultaneously. […] U2OS-EBNA1 cells were cotransfected with HPV18 genome and oriP plasmid and the cells were grown in the presence of various concentrations of the identified HPV inhibitors alone or together with 2 nM of CPT for 5 days, DMSO was used as vehicle control."}, "HPV18 [2]": {"tested_on": "HPV18", "assay": "Stable maintenance of HPV18 in U2OS #1.13 cells, subconfluent", "type": "cell-based", "settings": "U2OS #1.13, subconfluent, 7 days", "procedure": "(§2) FIG. 3 Effect of compounds on stable maintenance and vegetative amplification of HPV18. A: U2OS #1.13 cells were grown in subconfluent conditions in the presence of the identified five compounds for 7 days. Genomic DNA was extracted, linearized and HPV replication signal was detected by Southern Blot and B: quantified by phosphoimager. C: U2OS #1.13 were seeded and grown for 5 days without splitting. On the 5th day indicated concentrations of compounds were added to the media and the cells were grown for additional 7 days without splitting. On the 12th day genomic DNA was extracted, linearized and HPV replication signal was detected by Southern Blot and D: quantified by phosphoimager. Error-bars represent standard deviations from at least two independent experiments.\nOur U2OScell-based system is suitable for studying all three replication stages of various HPV subtypes. Stable maintenance phase could be monitored by maintaining HPV-positive cells in subconfluent conditions. We used HPV18 positive monoclonal U2OS cell-line #1.13 with viral copy number ˜2000. We grew the #1.13 cells in the presence of various concentration of compounds in subconfluent conditions (cells were split every three days) for 7 days. HPV18 replication signal was detected by Southern blot analyses and quantified with phosphoimager. About 50% of the signal was lost in case of compound 82269 compared to the DMSO control (FIG. 3, panel A, compare lanes 4-6 with lane 15 and panel B)."}, "HPV18 [3]": {"tested_on": "HPV18", "assay": "Vegetative amplification of HPV18 in U2OS #1.13 cells, confluent", "type": "cell-based", "settings": "U2OS #1.13, confluent, compounds added on 5th day for additional 7 days", "procedure": "as §2\nIf #1.13 is grown in confluent conditions for at least 5 days, vegetative amplification of HPV genome is turned on. We seeded equal amounts of cells onto plates and grew them for 5 days without splitting. On the 5th day various concentrations of compound were added and the cells were grown for additional 7 days (media was changed every two days throughout the experiment). HPV replication signal was detected by Southern Blot analyses and quantified with phosphoimager."}, "HPV18 [4]": {"tested_on": "HPV18", "assay": "HPV18 initial amplification replication assay in U2OS cells (Southern Blot)", "type": "cell-based", "excerpt": "FIG. 2 Effect of the identified five compounds on HPV18 initial amplification. A: U2OS cells were transfected with HPV18 wt minicircle and grown in the presence of the compounds with indicated concentrations for 5 days. Genomic DNA was extracted, linearized, and digested with DpnI. HPV genome replication signals were detected using Southern Blot analyses and quantified with phosphoimager and expressed relative to vehicle control (DMSO). Approximate IC50 values are shown for each compound. Error-bars represent standard deviation from at least three independent experiment. B: U2OS cells were transfected with the expression vectors of HPV18 E1 and E2 proteins together with HPV18 URR (origin) minicircle plasmid. The cells were grown in the presence of the compounds with indicated concentrations for 24 or 48 hours. Genomic DNA was extracted, linearized and digested with DpnI. HPV URR replication signals were detected by Southern Blot analyses. DMSO serves as vehicle control and M 18URR serves as size marker.\nas §1\nfor compounds inhibiting initial amplification of HPV18 genome in U2OS cells. HT-screening was conducted with all the compounds in this library in 5 uM and 1 uM concentrations and it gave us 80 hits (approximately 5% of analyzed compounds). After validation of the hits on HPV18 wt genome, we found five compounds inhibiting initial amplification of HPV18 in U2OS cells (FIG. 1). To further characterize the compounds, we performed replication assay described in Example 1."}},
  "note": "“Also recorded” adds a separate entry of the source.",
  "data": [
    {"smiles": "[H]/N=C(\\N)c1ccc(-c2ccc(-c3ccc(C(=N)N)cc3)o2)cc1", "note": "[NSC 305831]", "values": [
      {"measurement": "HPV18 replication carried out by E1 and E2 proteins originating from HPV11", "setting": "HPV18E1E2 mutant genome", "result": "no inhibition of HPV18 replication"},
      {"measurement": "Tdp inhibition", "setting": "Tdp", "result": "known to inhibit Tdp"},
      {"measurement": "synergistic effect together with CPT on HPV18 replication", "setting": "HPV18 [1]", "result": "clear concentration dependent synergistic effect; also recorded: clear synergistic inhibition"},
      {"measurement": "effect on stable maintenance of HPV18", "setting": "HPV18 [2]", "result": "clearly inhibit"},
      {"measurement": "HPV18 replication signal lost", "setting": "HPV18 [2]; compared to DMSO control", "result": "about 70%"},
      {"measurement": "effect on vegetative amplification of HPV18", "setting": "HPV18 [3]", "result": "almost completely abolished amplification; also recorded: clearly inhibit"},
      {"measurement": "IC50", "setting": "HPV18 [4]; 120 h, read-out: IC50 of HPV18 initial amplification", "result": "2.5 to 60", "unit": "µM"},
      {"measurement": "inhibition of HPV18 initial amplification", "setting": "HPV18 [4]; HPV18 wt minicircle, 5 days, Southern Blot, relative to DMSO", "result": "concentration-dependent inhibition"}
    ]}
  ]
}
